Results as given in article PMC7048285, “Lack of an association between clinical INSTI-related body weight gain and direct interference with MC4 receptor (MC4R), a key central regulator of body weight” (PLoS ONE, 2020).

Tests used:
[1] = Human clinical Cmax at recommended clinical dosage; assay type: in vivo; settings: unbound (protein-free)
[2] = biological target: T1, human recombinant melanocortin MC4 receptor (Homo sapiens, UniProt P32245); test: Functional cellular cAMP TR-FRET assay, antagonist mode (inhibition of 10 nM NDP-α-MSH response); assay type: cell-based; settings: for Antagonist Fold-margin on human Cmax (unbound): antagonist IC50 divided by clinical Cmax (unbound)
T1 construct: host or cells: frozen, irradiated CHO-K1 cells

[3] = human plasma; cited from earlier work
human MC4R [4] = biological target: T2, human MC4R (Homo sapiens, UniProt P32245); parameters: method as in earlier work; settings: 10 μM; previously reported; cited from earlier work
[5] = biological target: T1, human recombinant melanocortin MC4 receptor; test: Functional cellular cAMP TR-FRET assay, agonist mode; assay type: cell-based; settings: for Agonist Fold-margin on human Cmax (unbound): agonist IC50 divided by clinical Cmax (unbound); for IC50: cAMP increase relative to 3 μM NDP-α-MSH control, CHO-K1 cells
[6] = read-out: Human efficacious Cmax; total plasma, at recommended clinical dosage; cited from earlier work
human MC4R [7] = biological target: T2, human MC4R; test: Biochemical radioligand binding assay ([125I]NDP-α-MSH) on membranes of transfected CHO cells; parameters: host or cells: CHO cells (membrane homogenates); settings: for % inhibition of binding at 100 µM: 100 µM test compound, % inhibition of [125I]NDP-α-MSH specific binding; for IC50: radioligand binding, 0.05 nM [125I]NDP-α-MSH, 8 concentrations
cynomolgous monkeys = settings: daily oral, 39 weeks, AUC 16- to 30-fold clinical exposure at 50 mg; cited from earlier work
rats = settings: daily oral, 26 weeks, AUC 16- to 30-fold clinical exposure at 50 mg; cited from earlier work
mice = settings: daily oral, 4 weeks, AUC 16- to 30-fold clinical exposure at 50 mg; cited from earlier work

T2 sequence (P32245 whole entry): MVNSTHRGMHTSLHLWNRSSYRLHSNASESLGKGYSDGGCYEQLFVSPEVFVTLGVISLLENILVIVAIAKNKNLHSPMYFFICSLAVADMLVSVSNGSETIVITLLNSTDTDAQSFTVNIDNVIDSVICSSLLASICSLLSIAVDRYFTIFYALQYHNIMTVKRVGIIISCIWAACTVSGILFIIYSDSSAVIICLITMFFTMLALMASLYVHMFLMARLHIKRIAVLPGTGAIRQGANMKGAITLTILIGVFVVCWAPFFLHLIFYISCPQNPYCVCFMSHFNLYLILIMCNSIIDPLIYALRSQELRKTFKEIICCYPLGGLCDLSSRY
T1 sequence (P32245 whole entry): as above

Row | Compound | Human efficacious unbound Cmax [1] [µM] | IC50 [2] [µM] | Antagonist Fold-margin on human Cmax (unbound) [2] [fold] | Agonist Fold-margin on human Cmax (unbound) [5] [fold] | IC50 [5] [µM] | % inhibition of binding at 100 µM (human MC4R [7]) [%] | IC50 (human MC4R [7]) [µM] | IC50 ([2]; inhibition of 10 nM NDP-α-MSH induced cAMP response, CHO-K1 cells) [µM] | fold more potent in MC4R antagonism than DTG ([2]; EVG versus DTG) | % unbound [3] [%] | inhibition binding value (human MC4R [4]) [%] | Cmax [6] [µM] | effects on body weight gain (cynomolgous monkeys) | effects on body weight gain (rats) | effects on body weight gain (mice)
1 | C[C@@H]1CCO[C@H]2Cn3cc(C(=O)NCc4ccc(F)cc4F)c(=O)c(O)c3C(=O)N12 [DTG, dolutegravir] | 0.062 | 69.4 | 1120 | >1600 | > 100 | 91 | 1.7 |  |  | 0.7 | 64 | 8.8 |  |  | 
2 | Cc1nnc(C(=O)NC(C)(C)c2nc(C(=O)NCc3ccc(F)cc3)c(O)c(=O)n2C)o1 [RAL, raltegravir] |  | > 300 |  |  | > 300 | 55 | 78 |  |  |  |  | 15.7 |  |  | 
3 | C[C@H]1CO[C@@H]2Cn3cc(C(=O)NCc4ccc(F)cc4F)c(=O)c(O)c3C(=O)N12 [CAB, cabotegravir] | 0.025 | > 30 | >1200 | >1200 | > 30 | 86 | 0.46 |  |  | 0.16 |  | 15.7 |  |  | 

Further lines, with some results ahead:

Row | Human efficacious unbound Cmax [1] [µM] | IC50 [2] [µM] | Antagonist Fold-margin on human Cmax (unbound) [2] [fold] | Agonist Fold-margin on human Cmax (unbound) [5] [fold] | IC50 [5] [µM] | % inhibition of binding at 100 µM (human MC4R [7]) [%] | IC50 (human MC4R [7]) [µM] | IC50 ([2]; inhibition of 10 nM NDP-α-MSH induced cAMP response, CHO-K1 cells) [µM] | fold more potent in MC4R antagonism than DTG ([2]; EVG versus DTG) | Compound | % unbound [3] [%] | inhibition binding value (human MC4R [4]) [%] | Cmax [6] [µM] | effects on body weight gain (cynomolgous monkeys) | effects on body weight gain (rats) | effects on body weight gain (mice)
4 |  |  |  |  |  |  |  | 0.012 |  | agouti-related protein (SSRRCVRLHESCLGQQVPCCDPCATCYCRFFNAFCYCRKLGTAMNPCSRT; UniProt O00253 83-132, looked up) [AgRP] |  |  |  |  |  | 
5 | 0.034 | > 100 |  | >2900 | > 100 | 89 | 4.9 |  |  | O=C(NCc1c(F)cc(F)cc1F)c1cn2c(c(O)c1=O)C(=O)N1[C@H]3CC[C@H](C3)O[C@@H]1C2 [BIC, bictegravir] | 0.25 |  | 13.7 | no effects on body weight gain | no effects on body weight gain | no effects on body weight gain
6 | 0.0225 | 2.75 | 120 | >13000 | > 300 | 56 | 13 |  | approximately 25 fold | COc1cc2c(cc1Cc1cccc(Cl)c1F)c(=O)c(C(=O)O)cn2[C@H](CO)C(C)C [EVG, elvitegravir] | 0.48 |  | 4.7 |  |  | 
